For orientation: melting point means the temperature of the solid-liquid transition.

On to `CC(C)c1ccc2nc3ccc(C(=O)OCCCc4cccnc4)cc3c(=O)n2c1`, for which the melting point is 111 to 112 °C. In the case of `CCCCn1nc(C)c(C(N)=O)c1Cc1ccc(-c2ccccc2-c2nnn[nH]2)cc1` it was 204 to 208 °C; in that of `O=C1NC(=O)C(Cc2ccc(OCCON=Cc3ccc4ccccc4c3)cc2)S1` (stereo not drawn), 108 to 111 °C.

Regarding `COc1ccccc1NC(=O)c1ccccc1CN1C(=O)C2(COc3cc4c(cc32)CCO4)c2ccccc21` (stereo not drawn), the melting point fell in the range of 172 to 174 °C. With `CCCCCCCCCCCCCCCCOC(=O)c1cccc(N)c1`, the melting point was in the range of 52 to 53 °C.

As for `CCC1(CCCCN2CCN(c3ccc(Cl)cc3)CC2)C(=O)Nc2c(Cl)cc(Cl)cc21` (stereo not drawn), the melting point is 152 to 154 °C. Turning to `O=C(NCc1cccnc1)c1ccc2n1Cc1ccccc1N(C(=O)c1ccc(-c3ccccc3C=NO)cc1)C2`, the melting point fell in the range of 165 to 167 °C.

On to `CC(C)(C)OC(=O)CN1C(=O)C(=O)c2ccccc21`, for which the melting point lay within 119 to 121 °C. `FC(F)(F)c1ccc(Oc2ccc3nonc3c2)c(Cl)c1` yielded a melting point of 65 to 66 °C. In the case of `CCOC(=O)C(=NO)c1ccc(Oc2ccccc2)cc1` it was 131 to 132 °C; in that of `CSc1nccc(C)c1NC(=O)CCCCCCCCSc1nc2ccccc2o1`, 91 to 92 °C. Compound `Cc1cc(-c2nncc3c(C(C)(C)C)c(O)nn23)no1` came in with a melting point of 275 to 278 °C.

Compound `O=C1C[C@]2(c3ccccc3)CCCC[C@H]2C(=O)N1` (relative stereo) yielded a melting point of 180 to 182 °C.

The compound `CC(C)(C)c1cc(CN(c2cccnc2)S(=O)(=O)c2cccc(Br)c2)cc(C(C)(C)C)c1O` displayed a melting point of 129 to 131 °C. As for `Nc1ccc(Sc2cc(I)nc(I)c2)cc1`, the melting point lay within 175 to 176 °C. The compound `CCOc1ccc2nc(CCl)cn2c1` returned a melting point of 95 to 96 °C. For `O=C1C2CCCC2=Nc2ccccc2N1Cc1ccc([N+](=O)[O-])cc1` (stereo not drawn), the melting point is 185 to 188 °C. `COc1ccc(N2CCN(c3ccc(Nc4nc(-c5ccccc5)cs4)cc3)CC2)cc1` came in with a melting point of 270 °C. With `Clc1ccc2c(c1)CNc1ccccc1O2`, the melting point fell in the range of 123 to 125 °C. Turning to `Cn1ccn(CC#CCn2ccnc2)c1=O`, the melting point fell in the range of 106 to 109 °C. `COc1ccc2c(c1)Cc1nnc(S(C)=O)n1C=C2` (stereo not drawn): the melting point was in the range of 176 to 177 °C. Regarding `CC1=C(C(=O)OC(C)(C)C)C(c2cccc(F)c2)C(C(=O)OC(C)(C)C)=C(C)N1`, the melting point fell in the range of 178 to 179 °C. With `Nc1nc(-c2cc(OCc3ccccc3)no2)cs1`, the melting point was in the range of 129 to 131 °C. In turn, `NNC(=O)c1ccn2ncnc2c1` returned a melting point of 244 to 245 °C.

In turn, `C=C(Sc1ccc(C(C)(C)C)cc1)S(=O)(=O)c1ccc(Cl)cc1` displayed a melting point of 74 to 79 °C. `Nc1cc(Cl)ccc1Oc1c(C(=O)O)n(Cc2ccccc2)c2ccccc12`: the melting point fell in the range of 218 to 219 °C. For `CC(=NO)c1ccnc(N(C)C)c1`, the melting point is 145 to 148 °C. In the case of `Cc1nc(N)c2nc(C)n(CCCCCS(C)(=O)=O)c2c1C` it was 199 to 200 °C.

`Cc1nc2ccc3c(c2o1)OC(CN1CC=C(c2c[nH]c4ccc(Cl)cc24)CC1)CO3` (stereo not drawn) returned a melting point of 144 to 145 °C.

`Cc1ccc(C(C)(C)C)c(O)c1-c1nc2cc(S(=O)(=O)C(F)(F)F)ccc2[nH]1` gave a melting point of 218 to 220 °C.

`N#CC1(c2ccc(C(F)(F)F)cc2)C2CC3CC(C2)CC1C3` (stereo not drawn) returned a melting point of 122 to 124 °C. Take `NC(=O)c1cccc2c1CC(N(CCCc1c[nH]c3ccc(F)cc13)C1CCC1)CO2` (stereo not drawn): the melting point lay in the range of 102 to 105 °C. Turning to `Cc1cc(-c2nc3ccc(N4CCOCC4)cc3c(=O)[nH]2)cc(C)c1OCCO`, the melting point lay within 280 to 281 °C. `NC1=NC(c2ccccc2)(c2cccc(Cc3ccc(F)cc3)c2)C2=NCCCN12` (stereo not drawn) yielded a melting point of 152 °C.

Regarding `COc1cc2ncnc(N3CCC(C(=O)CN4C=CC(C)=NS4(=O)=O)CC3)c2cc1OC`, the melting point lay in the range of 172 to 175 °C. In the case of `CN(C)CCCn1c2c(c3ccccc31)CCS(=O)(=O)CCC2` it was 119 to 120 °C; in that of `COc1ccc(C(=C(c2ccc(OC)cc2)C(F)(F)F)c2ccc(F)cc2)cc1`, 75 to 77 °C; in that of `Cn1c(C(F)(F)F)cc(=O)n(-c2ccc3snc(-c4sccc4CO)c3c2)c1=O`, 168 to 169 °C. In the case of `CCC(C)n1c2ccccc2c2ccccc21` (stereo not drawn) it was 62 to 63 °C. For the compound `CCn1c(=O)c2[nH]c(C(C)C)nc2n(Cc2ccc(Cl)cc2)c1=O`, the melting point lay within 221 to 222 °C. `CC(=O)Oc1ccc(-c2c(CBr)c3ccc(OC(C)=O)cc3oc2=O)c(OC(C)=O)c1` had a melting point of 171 to 172 °C. With `NC(=O)CNC(=O)c1cccc(-c2ncnc3cc(Cc4cccc(C(F)(F)F)c4)sc23)c1`, the melting point was 205 to 206 °C. `O=C(NC(Cc1ccc(OCc2ccccc2)cc1)C(=O)O)c1cn2cc(-c3ccc(Cl)cc3)ccc2n1` (stereo not drawn) registered a melting point of 270 to 271 °C. `O=C(COc1ccccc1Cl)NCCO[N+](=O)[O-]` gave a melting point of 57 to 58 °C. In the case of `C#CCSC(=NC(=O)OC)NC(=O)Nc1ccc(C)cc1` it was 161 to 162 °C; in that of `O=C(O)CCCNC(=O)[C@@H](Cc1ccccc1)C[C@H](Cc1ccccc1)C(=O)O` (relative stereo), 127 to 129 °C; in that of `CC(=O)N[C@H]1CC[C@H](Nc2nccc(-n3nnc4ccccc43)n2)CC1`, 287 to 288 °C. In the case of `COC(=O)C=C1CC(=O)N(c2ccccc2)c2cc(Cl)ccc2N1` it was 199 to 201 °C. In the case of `CCOC(=O)COC1CCC2C3CCC4N=CCCC4(C)C3CCC12C` (stereo not drawn) it was 170 to 172 °C; in that of `CS(=O)(=O)c1ccc(-c2nn(Cc3ccc(Cl)cc3Cl)c(=O)cc2-c2ccc(Cl)cc2)cc1`, 233 to 234 °C; in that of `COc1ccc(C2CCCC(=O)N2c2ccccc2)cc1` (stereo not drawn), 77 to 78 °C. Compound `CSC1=Nc2ccccc2Cn2nnnc21` gave a melting point of 105 to 108 °C. `N#Cc1c(N2CCCCC2)cc(-c2ccc(F)cc2)c2c1C(=O)c1ccccc1-2` displayed a melting point of 152 to 154 °C. `CCC(O)C1CCNCC1` (stereo not drawn): the melting point was determined as 50 °C. `CCC(=O)OC(CC)c1ccc(Cl)c2nc3n(c12)CCCN3c1ccc(Cl)cc1Cl` (stereo not drawn) gave a melting point of 133 to 135 °C.

Regarding `CCCOc1ccc(CO)cc1-c1nc2c(CCC)nn(C)c2c(=O)[nH]1`, the melting point lay within 174 to 175 °C. Compound `CC(=O)Nc1nc(-c2ccc(F)c3ccccc23)cc(C(C)C)n1` gave a melting point of 115 to 117 °C. Compound `CC(=O)NC1=C(N2CCN(Cc3ccccc3)CC2)C(=O)c2ccccc2C1=O` yielded a melting point of 153 to 155 °C.

With `COc1ccc2c(c1)CN(CCc1ccc(N)cc1)CC2`, the melting point is 82 to 84 °C.

As to `CCCn1cc(C(=O)NCc2ccc(Cl)cc2)c(=O)c2cc(CCl)sc21`, the melting point was 186 to 188 °C. In the case of `CC(=O)OC(C)c1ccccc1CS(N)(=O)=O` (stereo not drawn) it was 135 to 140 °C; in that of `COc1ccc(OC(=O)CN2CCN(Cc3ccc(OC)c(OC)c3OC)CC2)cc1`, 68 to 71 °C; in that of `CS(=O)(=O)NCCSc1cccc2nccn12`, 130 to 131 °C.

The record behind these values is a melting point compilation (Tetko et al.; mined from patent text by program, amines drawn as free bases though some values may be those of a salt).
